Results published in ChEMBL document CHEMBL1201862, “PubChem BioAssay data set” (2004).
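Values below derive from 48-hour exposures of cells grown in 96-well plates, with endpoints linearly interpolated between the two concentrations bracketing the appropriate inhibition level. GI50 = concentration required for 50% inhibition of growth.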 Active and inactive are the calls of the source. Cut-off read from the data, not from the text of the source: active = GI50 up to about 1.1 µM and inactive = higher.

How the values were obtained:
Test in all cases: growth of human tumour cells (NCI), 48 h
IGROV-1 = tested on: IGROV-1
HCT-15 = tested on: HCT-15
OVCAR-4 = tested on: OVCAR-4
SF-295 = tested on: SF-295
K562 = tested on: K562
SK-OV-3 = tested on: SK-OV-3
DU-145 = tested on: DU-145
SK-MEL-28 = tested on: SK-MEL-28
A549 = tested on: A549
MOLT-4 = tested on: MOLT-4
CAKI-1 = tested on: CAKI-1
RXF 393 = tested on: RXF 393
SF-539 = tested on: SF-539
HL-60 = tested on: HL-60
SK-MEL-5 = tested on: SK-MEL-5
NCI-H522 = tested on: NCI-H522
BT-549 = tested on: BT-549
HT-29 = tested on: HT-29
NCI-H460 = tested on: NCI-H460
HOP-62 = tested on: HOP-62
MDA-MB-231 = tested on: MDA-MB-231
MDA-MB-435 = tested on: MDA-MB-435
NCI-H23 = tested on: NCI-H23
UACC-257 = tested on: UACC-257
KM12 = tested on: KM12
786-0 = tested on: 786-0
ACHN = tested on: ACHN
SF-268 = tested on: SF-268
SNB-75 = tested on: SNB-75
SN12C = tested on: SN12C
PC-3 = tested on: PC-3
UACC-62 = tested on: UACC-62
SW-620 = tested on: SW-620
OVCAR-3 = tested on: OVCAR-3
HCT-116 = tested on: HCT-116
SK-MEL-2 = tested on: SK-MEL-2
T47D = tested on: T47D
SR = tested on: SR
TK-10 = tested on: TK-10
OVCAR-5 = tested on: OVCAR-5
OVCAR-8 = tested on: OVCAR-8
MCF7 = tested on: MCF7
Malme-3M = tested on: Malme-3M
LOX IMVI = tested on: LOX IMVI
SNB-19 = tested on: SNB-19
U-251 = tested on: U-251
UO-31 = tested on: UO-31
Hs-578T = tested on: Hs-578T
EKVX = tested on: EKVX
CCRF-CEM = tested on: CCRF-CEM
HOP-92 = tested on: HOP-92
MDA-N = tested on: MDA-N
HCC 2998 = tested on: HCC 2998
COLO 205 = tested on: COLO 205
NCI/ADR-RES = tested on: NCI/ADR-RES
M14 = tested on: M14
NCI-H226 = tested on: NCI-H226
RPMI-8226 = tested on: RPMI-8226

## COc1cc(-c2cc(=O)c3c(OC)c(OC)c(OC)cc3o2)c(OC)c(OC)c1OC
IGROV-1
  GI50: > 75 µM (inactive)
HCT-15
  GI50: > 75 µM
OVCAR-4
  GI50: 41.1 µM (inactive)
SF-295
  GI50: > 75 µM (inactive)
K562
  GI50: 39.1 µM (inactive)
SK-OV-3
  GI50: > 75 µM (inactive)
DU-145
  GI50: > 75 µM (inactive)
SK-MEL-28
  GI50: > 75 µM (inactive)
A549
  GI50: > 75 µM (inactive)
MOLT-4
  GI50: 40.2 µM (inactive)
CAKI-1
  GI50: > 75 µM (inactive)
RXF 393
  GI50: 52.1 µM (inactive)
SF-539
  GI50: > 75 µM (inactive)
HL-60
  GI50: 16.9 µM (inactive)
SK-MEL-5
  GI50: 53.7 µM (inactive)
NCI-H522
  GI50: > 75 µM (inactive)
BT-549
  GI50: 51.5 µM (inactive)
HT-29
  GI50: > 75 µM (inactive)
NCI-H460
  GI50: > 75 µM (inactive)
HOP-62
  GI50: > 75 µM (inactive)
MDA-MB-231
  GI50: 63.4 µM (inactive)
MDA-MB-435
  GI50: > 75 µM (inactive)
NCI-H23
  GI50: > 75 µM (inactive)
UACC-257
  GI50: > 75 µM (inactive)
KM12
  GI50: > 75 µM (inactive)
786-0
  GI50: > 75 µM (inactive)
ACHN
  GI50: > 75 µM (inactive)
SF-268
  GI50: > 75 µM (inactive)
SNB-75
  GI50: > 75 µM (inactive)
SN12C
  GI50: > 75 µM (inactive)
PC-3
  GI50: 23.6 µM (inactive)
UACC-62
  GI50: 42.5 µM (inactive)
SW-620
  GI50: > 75 µM (inactive)
OVCAR-3
  GI50: 51.2 µM (inactive)
HCT-116
  GI50: > 75 µM (inactive)
SK-MEL-2
  GI50: 45.6 µM (inactive)
T47D
  GI50: 49.3 µM (inactive)
SR
  GI50: 63.1 µM (inactive)
TK-10
  GI50: > 75 µM (inactive)
OVCAR-5
  GI50: > 75 µM (inactive)
OVCAR-8
  GI50: > 75 µM (inactive)
MCF7
  GI50: > 75 µM (inactive)
Malme-3M
  GI50: > 75 µM (inactive)
LOX IMVI
  GI50: 63.5 µM (inactive)
SNB-19
  GI50: > 75 µM (inactive)
U-251
  GI50: > 75 µM (inactive)
UO-31
  GI50: 57.3 µM (inactive)
Hs-578T
  GI50: > 75 µM (inactive)
EKVX
  GI50: > 75 µM (inactive)
CCRF-CEM
  GI50: 65.2 µM (inactive)
HOP-92
  GI50: 14 µM (inactive)
MDA-N
  GI50: > 75 µM (inactive)
HCC 2998
  GI50: > 75 µM (inactive)
COLO 205
  GI50: > 75 µM (inactive)
NCI/ADR-RES
  GI50: 36.9 µM (inactive)
M14
  GI50: > 75 µM (inactive)
NCI-H226
  GI50: > 75 µM (inactive)
RPMI-8226
  GI50: 25 µM (inactive)

## Nc1ccc2nc3c(nc2c1)C(=O)c1ccccc1-3
IGROV-1
  GI50: > 100 µM (inactive)
HCT-15
  GI50: > 100 µM
OVCAR-4
  GI50: > 100 µM (inactive)
SF-295
  GI50: > 100 µM (inactive)
K562
  GI50: > 100 µM (inactive)
SK-OV-3
  GI50: > 100 µM (inactive)
DU-145
  GI50: > 100 µM (inactive)
SK-MEL-28
  GI50: > 100 µM (inactive)
A549
  GI50: > 100 µM (inactive)
MOLT-4
  GI50: 20.3 µM (inactive)
RXF 393
  GI50: > 100 µM (inactive)
SF-539
  GI50: > 100 µM (inactive)
HL-60
  GI50: > 100 µM (inactive)
SK-MEL-5
  GI50: > 100 µM (inactive)
NCI-H522
  GI50: > 100 µM (inactive)
BT-549
  GI50: > 100 µM (inactive)
HT-29
  GI50: > 100 µM (inactive)
NCI-H460
  GI50: 69.2 µM (inactive)
HOP-62
  GI50: > 100 µM (inactive)
MDA-MB-231
  GI50: > 100 µM (inactive)
MDA-MB-435
  GI50: > 100 µM (inactive)
NCI-H23
  GI50: > 100 µM (inactive)
UACC-257
  GI50: > 100 µM (inactive)
KM12
  GI50: > 100 µM (inactive)
786-0
  GI50: 75 µM (inactive)
ACHN
  GI50: > 100 µM (inactive)
SF-268
  GI50: > 100 µM (inactive)
SNB-75
  GI50: > 100 µM (inactive)
SN12C
  GI50: > 100 µM (inactive)
PC-3
  GI50: > 100 µM (inactive)
UACC-62
  GI50: > 100 µM (inactive)
SW-620
  GI50: > 100 µM (inactive)
OVCAR-3
  GI50: > 100 µM (inactive)
HCT-116
  GI50: > 100 µM (inactive)
T47D
  GI50: > 100 µM (inactive)
SR
  GI50: > 10 µM (inactive)
TK-10
  GI50: > 100 µM (inactive)
OVCAR-5
  GI50: > 100 µM (inactive)
OVCAR-8
  GI50: > 100 µM (inactive)
MCF7
  GI50: > 100 µM (inactive)
Malme-3M
  GI50: > 100 µM (inactive)
SNB-19
  GI50: > 100 µM (inactive)
U-251
  GI50: > 100 µM (inactive)
Hs-578T
  GI50: > 100 µM (inactive)
EKVX
  GI50: > 100 µM (inactive)
CCRF-CEM
  GI50: 84.3 µM (inactive)
HOP-92
  GI50: > 100 µM (inactive)
MDA-N
  GI50: > 100 µM (inactive)
HCC 2998
  GI50: > 100 µM (inactive)
COLO 205
  GI50: > 100 µM (inactive)
NCI/ADR-RES
  GI50: > 100 µM (inactive)
M14
  GI50: > 100 µM (inactive)
NCI-H226
  GI50: 29 µM (inactive)
RPMI-8226
  GI50: > 100 µM (inactive)
